The record followed here is patent US8673969B2, “Substituted 4-β-acrylamidopodophyllotoxin congeners as antitumour antibiotics and the process for preparation thereof” (Council of Scientific & Industrial Research, priority 2010, dated 2014).

In data set [1] the test system is Hop62. The data set can be described thus: SRB assay, lung cancer cell line Hop62. In kind it is cell-based. The settings on record: Homo sapiens, HOP-62, 48 h, read-out: In vitro anticancer activity GI50, Lung Hop62. The protocol:
(§1) Single cell suspension of the tumour cells grown in tissue culture were made, cells counted and cell count adjusted to 1×10^5 to 5×10^5 cells/ml. Ninety six (96) well plates were seeded with this cell suspension, each well receiving 100 μl of it. The plate was then be incubated at 37° C. temperature in CO2 incubator for 24 hours. Drugs were added at concentrations after 24-hour incubation followed by further incubation for 48 hours. Experiment was terminated by gently layering the cells in the wells with 30% TCA and plates were kept in refrigerator for 1 hour following which they were washed thoroughly with tap water, dried attained with 0.4% SRB in 1% acetic aid and finally, the bound SRB eluted with 10 mM tris. Absorbance was read at 540 nm, in the microtitre-plate reader. Optical density of drug-treated cells was compared with that of control cells and cell inhibition was calculated as percent values. Each compound was tested at 10, 20, 40 and 80 μg/ml in triplicate on human malignant cell lines.
(Sulforhodamine B stains cellular protein and so reports cell mass.)

Data set [2] has as its system A-549. The data set can be described thus: SRB assay, lung cancer cell line A-549. In kind it is cell-based. The settings on record: Homo sapiens, A549, 48 h, read-out: In vitro anticancer activity GI50, Lung A-549. Here is the method: as §1
The test system of data set [3] is Zr-75-1. Briefly: SRB assay, breast cancer cell line Zr-75-1. In kind it is cell-based. The note with it: Homo sapiens, ZR-75-1, 48 h, read-out: In vitro anticancer activity GI50, Breast Zr-75-1. Here is the method: as §1
Data set [4] deals with Gurav. The data set can be described thus: SRB assay, oral cancer cell line Gurav. In kind it is cell-based. The settings on record: Homo sapiens, 48 h, read-out: In vitro anticancer activity GI50, Oral Gurav. The protocol:
as §1

The test system of data set [5] is KB. Briefly: SRB assay, oral cancer cell line KB. In kind it is cell-based. The note with it: Homo sapiens, 48 h, read-out: In vitro anticancer activity GI50, Oral KB. Here is the method: as §1
Data set [6] has as its system DWD. The data set can be described thus: SRB assay, oral cancer cell line DWD. In kind it is cell-based. The note with it: Homo sapiens, 48 h, read-out: In vitro anticancer activity GI50, Oral DWD. The protocol: as §1
Data set [7] has as its system A-2780. Briefly: SRB assay, ovarian cancer cell line A-2780. The settings on record: Homo sapiens, A2780, 48 h, read-out: In vitro anticancer activity GI50, Ovarian A-2780. In kind it is cell-based. Here is the method: as §1
Data set [8] concerns MCF7. Briefly: SRB assay, breast cancer cell line MCF7. In kind it is cell-based. The note with it: Homo sapiens, MCF7, 48 h, read-out: In vitro anticancer activity GI50, Breast MCF7. The protocol:
as §1

Data set [9] has as its system Colo205. The data set can be described thus: SRB assay, colon cancer cell line Colo205. In kind it is cell-based. The note with it: Homo sapiens, COLO 205, 48 h, read-out: In vitro anticancer activity GI50, Colon Colo205. Here is the method: as §1

In general, melting point refers to the temperature, or range, at which the solid turns liquid. The term GI50 denotes the concentration giving 50% growth inhibition.

Where only a bound is given, the exact number is not on record here.

The molecule `COc1cc(/C=C(/C(=O)N[C@@H]2c3cc4c(cc3[C@@H](c3cc(OC)c(OC)c(OC)c3)[C@H]3C(=O)OC[C@@H]32)OCO4)c2cc(OC)c(OC)c(OC)c2)ccc1O` [Compound 3a, 4β-(E)-3-(4-hydroxy-3-methoxyphenyl)-2-(3,4,5-trimethoxyphenyl)acrylamidopodophyllotoxin] came in with a melting point of 134 to 137 °C. Also, in data set [1], the 50% growth inhibitory concentration (GI50) was 2500 nM. Besides, the 50% growth inhibitory concentration (GI50) in data set [2] is 2400 nM.
Take `COc1ccc(/C=C(/C(=O)N[C@@H]2c3cc4c(cc3[C@@H](c3cc(OC)c(OC)c(OC)c3)[C@H]3C(=O)OC[C@@H]32)OCO4)c2cc(OC)c(OC)c(OC)c2)cc1O` [Compound 3b, 4β-(E)-3-(3-hydroxy-4-methoxyphenyl)-2-(3,4,5-trimethoxyphenyl)acrylamido podophyllotoxin]: the melting point lay in the range of 145 to 147 °C. In addition, the GI50 in [1] is 2900 nM. The 50% growth inhibitory concentration (GI50) in [2] was 2900 nM.
`COc1cc(/C=C(/C(=O)N[C@@H]2c3cc4c(cc3[C@@H](c3cc(OC)c(OC)c(OC)c3)[C@H]3C(=O)OC[C@@H]32)OCO4)c2cc(OC)c(OC)c(OC)c2)ccc1F` [Compound 3c, 4β-(E)-3-(4-fluoro-3-methoxyphenyl)-2-(3,4,5-trimethoxyphenyl)acrylamidopodophyllotoxin] returned a melting point of 144 to 146 °C. Besides, the GI50 in data set [3] came to 2200 nM. Also, the concentration for 50% growth inhibition (GI50) in data set [4] amounted to 2400 nM. The GI50 in [1] worked out at 2500 nM.
For the molecule `COc1ccc(F)c(/C=C(/C(=O)N[C@@H]2c3cc4c(cc3[C@@H](c3cc(OC)c(OC)c(OC)c3)[C@H]3C(=O)OC[C@@H]32)OCO4)c2cc(OC)c(OC)c(OC)c2)c1` [Compound 3e, 4β-(E)-3-(2-fluoro-5-methoxyphenyl)-2-(3,4,5-trimethoxyphenyl)acrylamidopodophyllotoxin], the melting point was in the range of 123 to 126 °C. Besides, in data set [3], the concentration for 50% growth inhibition (GI50) amounted to 2700 nM. The GI50 in data set [4] was determined as 2500 nM.
In turn, `COc1ccc(/C=C(/C(=O)N[C@@H]2c3cc4c(cc3[C@@H](c3cc(OC)c(OC)c(OC)c3)[C@H]3C(=O)OC[C@@H]32)OCO4)c2cc(OC)c(OC)c(OC)c2)c(F)c1` [Compound 3f, 4β-(E)-3-(2-fluoro-4-methoxyphenyl)-2-(3,4,5-trimethoxyphenyl)acrylamidopodophyllotoxin] gave a melting point of 123 to 125 °C. Moreover, the concentration for 50% growth inhibition (GI50) in data set [5] amounted to 2600 nM. The concentration for 50% growth inhibition (GI50) in data set [6] came out at 190 nM. In addition, the GI50 in data set [7] was determined as 2700 nM. In data set [3], the concentration for 50% growth inhibition (GI50) was 2500 nM. In addition, the 50% growth inhibitory concentration (GI50) in data set [4] came out at 180 nM. Moreover, the concentration for 50% growth inhibition (GI50) in data set [8] turned out to be 2400 nM. Further, in data set [1], the GI50 is 170 nM. The GI50 in data set [2] was 2100 nM.
Molecule `COc1ccc(/C=C(/C(=O)N[C@@H]2c3cc4c(cc3[C@@H](c3cc(OC)c(OC)c(OC)c3)[C@H]3C(=O)OC[C@@H]32)OCO4)c2cc(OC)c(OC)c(OC)c2)cc1[N+](=O)[O-]` [Compound 3h, 4β-(E)-3-(4-methoxy-3-nitrophenyl)-2-(3,4,5-trimethoxyphenyl)acrylamidopodophyllotoxin] came in with a melting point of 140 to 143 °C. Further, the 50% growth inhibitory concentration (GI50) in data set [6] amounted to 2900 nM. In addition, in data set [7], the concentration for 50% growth inhibition (GI50) was determined as 2500 nM. The GI50 in [3] was 2200 nM. The GI50 in data set [9] turned out to be 2700 nM. In addition, in [4], the concentration for 50% growth inhibition (GI50) was 2600 nM. Moreover, the 50% growth inhibitory concentration (GI50) in [1] is 2300 nM.
`COc1cc(/C(=C\c2ccc([N+](=O)[O-])cc2)C(=O)N[C@@H]2c3cc4c(cc3[C@@H](c3cc(OC)c(OC)c(OC)c3)[C@H]3C(=O)OC[C@@H]32)OCO4)cc(OC)c1OC` [Compound 3i, 4β-(E)-3-(4-nitrophenyl)-2-(3,4,5-trimethoxyphenyl)acrylamidopodophyllotoxin]: the melting point fell in the range of 187 to 190 °C. The 50% growth inhibitory concentration (GI50) in data set [6] came out at 2400 nM. Also, the GI50 in data set [7] is 2600 nM. In data set [3], the GI50 was found to be 2200 nM. In data set [9], the GI50 was 2100 nM. Further, the GI50 in [4] stood at 2100 nM. Besides, in [1], the GI50 is 2700 nM.
`COc1cc(/C(=C\c2cccc([N+](=O)[O-])c2)C(=O)N[C@@H]2c3cc4c(cc3[C@@H](c3cc(OC)c(OC)c(OC)c3)[C@H]3C(=O)OC[C@@H]32)OCO4)cc(OC)c1OC` [Compound 3j, 4β-(E)-3-(3-nitrophenyl)-2-(3,4,5-trimethoxyphenyl)acrylamido podophyllotoxin] registered a melting point of 181 to 184 °C. The GI50 in [6] was below 100 nM. The GI50 in data set [7] came out at 2500 nM. Also, the GI50 in data set [4] was determined as 2100 nM. The GI50 in data set [8] came to 2700 nM. The concentration for 50% growth inhibition (GI50) in data set [1] was 170 nM. Besides, the GI50 in [2] turned out to be 2400 nM.
In turn, `COc1cc(/C(=C\c2ccccc2[N+](=O)[O-])C(=O)N[C@@H]2c3cc4c(cc3[C@@H](c3cc(OC)c(OC)c(OC)c3)[C@H]3C(=O)OC[C@@H]32)OCO4)cc(OC)c1OC` [Compound 3k, 4β-(E)-3-(2-nitrophenyl)-2-(3,4,5-trimethoxyphenyl)acrylamidopodophyllotoxin] showed a melting point of 197 to 200 °C. The GI50 in data set [5] was 2700 nM. In addition, in [7], the GI50 worked out at 2300 nM. In addition, the 50% growth inhibitory concentration (GI50) in data set [3] turned out to be 2500 nM. For the same molecule, the GI50 in [1] turned out to be 2700 nM. The 50% growth inhibitory concentration (GI50) in data set [2] is 2500 nM.
With `COc1ccccc1/C(=C\c1ccc([N+](=O)[O-])cc1)C(=O)N[C@@H]1c2cc3c(cc2[C@@H](c2cc(OC)c(OC)c(OC)c2)[C@H]2C(=O)OC[C@@H]21)OCO3` [Compound 3l, 4β-(E)-2-(2-methoxyphenyl)-3-(4-nitrophenyl)acrylamidopodophyllotoxin], the melting point fell in the range of 181 to 183 °C. Also, the 50% growth inhibitory concentration (GI50) in data set [5] came out at 2400 nM. Further, the GI50 in [6] turned out to be 2300 nM. Besides, the concentration for 50% growth inhibition (GI50) in [7] was determined as 2300 nM. Besides, in [3], the GI50 was 2100 nM. The GI50 in data set [4] worked out at 2100 nM. Moreover, the concentration for 50% growth inhibition (GI50) in data set [8] is 2700 nM. The GI50 in data set [1] amounted to 2000 nM. For the same molecule, the GI50 in data set [2] is below 100 nM.
Turning to `COc1ccccc1/C(=C\c1ccccc1[N+](=O)[O-])C(=O)N[C@@H]1c2cc3c(cc2[C@@H](c2cc(OC)c(OC)c(OC)c2)[C@H]2C(=O)OC[C@@H]21)OCO3` [Compound 3m, 4β-(E)-2-(2-methoxyphenyl)-3-(2-nitrophenyl)acrylamidopodophyllotoxin], the melting point was in the range of 187 to 190 °C. Also, in [5], the concentration for 50% growth inhibition (GI50) came to 2500 nM. Besides, in data set [6], the GI50 was 2300 nM. Further, the GI50 in data set [7] stood at 2200 nM. In [3], the GI50 is 2200 nM. Besides, the concentration for 50% growth inhibition (GI50) in data set [4] amounted to 2200 nM. The 50% growth inhibitory concentration (GI50) in [8] is 2800 nM. The GI50 in data set [1] came out at 2100 nM. Besides, in data set [2], the GI50 is below 100 nM.
In turn, `COc1ccc(/C=C(/C(=O)N[C@@H]2c3cc4c(cc3[C@@H](c3cc(OC)c(OC)c(OC)c3)[C@H]3C(=O)OC[C@@H]32)OCO4)c2cc(OC)c(OC)c(OC)c2)cc1` [Compound 3n, 4β-(E)-3-(4-methoxyphenyl)-2-(3,4,5-trimethoxyphenyl)acrylamidopodophyllotoxin] yielded a melting point of 128 to 130 °C. Also, in data set [6], the GI50 came to 2300 nM. The GI50 in data set [7] was 2500 nM. Also, the GI50 in data set [3] came out at 2900 nM. Further, in [9], the GI50 amounted to 170 nM. Also, the 50% growth inhibitory concentration (GI50) in data set [4] was 2200 nM. In addition, the GI50 in [8] was determined as 2900 nM.
For the molecule `COc1cccc(/C=C(/C(=O)N[C@@H]2c3cc4c(cc3[C@@H](c3cc(OC)c(OC)c(OC)c3)[C@H]3C(=O)OC[C@@H]32)OCO4)c2cc(OC)c(OC)c(OC)c2)c1` [Compound 3o, 4β-(E)-3-(3-methoxyphenyl)-2-(3,4,5-trimethoxyphenyl)acrylamidopodophyllotoxin], the melting point lay in the range of 187 to 190 °C. Also, in [5], the 50% growth inhibitory concentration (GI50) was 2100 nM. In addition, the GI50 in [6] worked out at 2200 nM. Moreover, the GI50 in data set [7] is below 100 nM. The GI50 in data set [3] is 180 nM. The GI50 in data set [4] is 2100 nM. Besides, the GI50 in data set [8] came to 2700 nM. Moreover, in [1], the GI50 was 180 nM. Further, in data set [2], the GI50 is below 100 nM.
`COc1cc(/C(=C\c2ccc(O)cc2)C(=O)N[C@@H]2c3cc4c(cc3[C@@H](c3cc(OC)c(OC)c(OC)c3)[C@H]3C(=O)OC[C@@H]32)OCO4)cc(OC)c1OC` [Compound 3p, 4β-(E)-3-(4-hydroxyphenyl)-2-(3,4,5-trimethoxyphenyl)acrylamidopodophyllotoxin] yielded a melting point of 137 to 140 °C. Also, the concentration for 50% growth inhibition (GI50) in data set [5] was 2600 nM. In data set [6], the GI50 amounted to 2700 nM. Further, the concentration for 50% growth inhibition (GI50) in [3] turned out to be 2700 nM. Moreover, the concentration for 50% growth inhibition (GI50) in [4] was determined as 2700 nM. Further, in data set [1], the concentration for 50% growth inhibition (GI50) turned out to be 2600 nM. Further, the concentration for 50% growth inhibition (GI50) in [2] is 2300 nM.
